SMILES strings stand for the structures.

Holding throughout (type): physicochemical
Data set [1] in a line: Absorption maximum in water. An excerpt:
The absorption maxima and the results of the tests (B) to (D) are listed in Table 6 for the dyes of the invention and in Table 7 for the dyes that are state of the art.

Data set [2] can be described thus: Color co-ordinates (L*a*b*) of printed samples. The note with it: for neutral black (color co-ordinates): in words. The protocol:
(§1) The present invention, as far as it relates to inks, is further illustrated by the following examples using dyes according to our invention described in Tables 1 and 2 and dyes representing the state of the art described in Tables 3 and 4. 100 g of each ink were prepared by heating the necessary amount of dye (3-7 g), glycerol (5 g), tetraethylenglycol (1.1 g). and a biocide solution (Promexal X50, available from Zeneca, Manchester, England) (1.2 g) together with water at a temperature of 50° C. under stirring for one hour. The resulting solution was cooled down to 20° C., pH was adjusted to 7.5 and passed through a Millipore® filter of 0.5 μm pore diameter. The dye quantity was adjusted in a way that the density of the printed images was the same for all dyes.
(§2) 30 g of gelatin with a high isoelectric point (type St 70,810, available from Deutsche Gelatinefabriken, Eberbach, Germany) were dissolved in 360 ml of deionised water. 1 g of a surfactant (Olin 10G, available from Olin Corporation, Norwalk, USA) were added to this solution. Immediately before coating 6.6 g of a solution of 2-(4-dimethyl-carbamoyl-pyridino)-ethanesulfonate (3%) were added and pH was adjusted to 6.5. 100 g/m^2 of this solution was then coated onto a resin coated paper support using a bar coater. The recording medium prepared in this way was dried for 12 hours.
(§3) The inks were then jetted onto this recording medium with an HP560 ink jet printer from Hewlett-Packard. The properties of the printed samples were evaluated later on.
L*a*b*-values were measured on printed samples using a Gretag SPM 100 spectrometer, available from Gretag AG, Regensdorf, Switzerland.
Black dyes show a neutral hue if the values of a* and b*out of the L*a*b* color co-ordinates are zero.

The nature of data set [3]: Light fastness of printed samples (density loss after xenon lamp irradiation). To be noted: for Density loss in %: xenon lamp, total illumination 20 kJoule/cm^2; for light fastness: printed samples, in words. The protocol: as §1, §2, §3
The printed samples were irradiated in an Atlas Ci35A Weather-O-Meter® with a r 6500 W Xenon lamp until a total illumination of 20 kJoule/cm^2 was reached. The density loss was measured with an X-Rite® densitometer. It is expressed as % loss of initial density.

Consider `O=S(=O)(O)CCNc1ccc2cc(S(=O)(=O)O)c(N=Nc3ccc(N=Nc4cccc(CO)c4)c4ccc(S(=O)(=O)O)cc34)c(O)c2c1` [Compound 1], for which the “HD max in water” value in data set [1] (Table 6) came to 582 nm. Moreover, the “HD max in water (second maximum)” value in data set [1] (second value of the cell, Table 6) is 440 nm.
For `O=C(O)c1cccc(N=Nc2ccc(N=Nc3c(S(=O)(=O)O)cc4ccc(NCCS(=O)(=O)O)cc4c3O)c3cc(S(=O)(=O)O)ccc23)c1` [Compound 2], in data set [1] (Table 6), the “HD max in water” value turned out to be 573 nm. In data set [2] (Table 6), the “L*a*b*-value: L*” value is 2.1, the “L*a*b*-value: a*” value came out at 2.0 and the “L*a*b*-value: b*” value was 0.3. In addition, the “Density loss in %” value in data set [3] (Table 6) came to 0%.
The corresponding values for `O=S(=O)(O)CCNc1ccc2cc(S(=O)(=O)O)c(N=Nc3ccc(N=Nc4ccc(S(=O)(=O)O)cc4)c4cc(S(=O)(=O)O)ccc34)c(O)c2c1` [Compound 4] are 577 nm, 8.9, 14.4, -7.5 and 7%.
Regarding `O=S(=O)(O)CCNc1ccc2cc(S(=O)(=O)O)c(N=Nc3ccc(N=Nc4cccc(S(=O)(=O)O)c4)c4cc(S(=O)(=O)O)ccc34)c(O)c2c1` [Compound 6], the “HD max in water” value in data set [1] (Table 6) stood at 573 nm. Moreover, in data set [2] (Table 6), the “L*a*b*-value: L*” value was found to be 7.5, the “L*a*b*-value: a*” value came to 14.6 and the “L*a*b*-value: b*” value is -6.4. Moreover, the “Density loss in %” value in data set [3] (Table 6) is reported as 8%.
`O=C(O)Cc1ccc(N=Nc2ccc(N=Nc3c(S(=O)(=O)O)cc4ccc(NCCS(=O)(=O)O)cc4c3O)c3cc(S(=O)(=O)O)ccc23)cc1` [Compound 7]: the “HD max in water” value in data set [1] (Table 6) is 576 nm. Further, in data set [2] (Table 6), the “L*a*b*-value: L*” value is given as 15.5, the “L*a*b*-value: a*” value was found to be 5.2 and the “L*a*b*-value: b*” value is recorded as -5.9. The “neutral black (color co-ordinates)” value in data set [2] is given as “neutral blacks”. The light fastness result in data set [3] is reported as “excellent light fastness”. In addition, the “Density loss in %” value in data set [3] (Table 6) is on record as 1%.
As for `O=S(=O)(O)CCNc1ccc2cc(S(=O)(=O)O)c(N=Nc3ccc(N=Nc4ccc(CS(=O)(=O)O)cc4)c4cc(S(=O)(=O)O)ccc34)c(O)c2c1` [Compound 9], the “HD max in water” value in data set [1] (Table 6) came out at 575 nm. In addition, in data set [2] (Table 6), the “L*a*b*-value: L*” value is given as 22.9, the “L*a*b*-value: a*” value worked out at 11.0 and the “L*a*b*-value: b*” value is recorded as -5.2. In addition, the “Density loss in %” value in data set [3] (Table 6) stood at 14%.
As for `O=P(O)(O)Cc1ccc(N=Nc2ccc(N=Nc3c(S(=O)(=O)O)cc4ccc(NCCS(=O)(=O)O)cc4c3O)c3cc(S(=O)(=O)O)ccc23)cc1` [Compound 10], the “HD max in water” value in data set [1] (Table 6) turned out to be 578 nm. Besides, in data set [2] (Table 6), the “L*a*b*-value: L*” value is given as 2.0, the “L*a*b*-value: a*” value was 1.5 and the “L*a*b*-value: b*” value came out at 0.1. In addition, the “Density loss in %” value in data set [3] (Table 6) worked out at 13%.
Regarding `O=S(=O)(O)CCNc1ccc2cc(S(=O)(=O)O)c(N=Nc3ccc(N=Nc4ccc(CCO)cc4)c4ccc(S(=O)(=O)O)cc34)c(O)c2c1` [Compound 11], in data set [1] (Table 6), the “HD max in water” value is 577 nm. For the same compound, in data set [2] (Table 6), the “L*a*b*-value: L*” value is given as 18.3, the “L*a*b*-value: a*” value was 4.2 and the “L*a*b*-value: b*” value is -3.1. In data set [3] (Table 6), the “Density loss in %” value is 11%.
For the compound `O=C(O)CCc1ccc(N=Nc2ccc(N=Nc3c(S(=O)(=O)O)cc4ccc(NCCS(=O)(=O)O)cc4c3O)c3cc(S(=O)(=O)O)ccc23)cc1` [Compound 12], in data set [1] (Table 6), the “HD max in water” value stood at 576 nm. Further, in data set [2] (Table 6), the “L*a*b*-value: L*” value stood at 12.1, the “L*a*b*-value: a*” value came to 3.8 and the “L*a*b*-value: b*” value was -3.1. Also, the “neutral black (color co-ordinates)” value in data set [2] is “neutral blacks”. Besides, in data set [3], the light fastness entry is recorded as “excellent light fastness”. Moreover, the “Density loss in %” value in data set [3] (Table 6) was determined as 4%.
With `O=C(O)CCc1cccc(N=Nc2ccc(N=Nc3c(S(=O)(=O)O)cc4ccc(NCCS(=O)(=O)O)cc4c3O)c3cc(S(=O)(=O)O)ccc23)c1` [Compound 13], the “HD max in water” value in data set [1] (Table 6) worked out at 575 nm. In addition, in data set [3] (Table 6), the “Density loss in %” value worked out at 4%.
For the compound `O=C(O)CCC(NC(=O)c1ccc(N=Nc2ccc(N=Nc3c(S(=O)(=O)O)cc4ccc(NCCS(=O)(=O)O)cc4c3O)c3cc(S(=O)(=O)O)ccc23)cc1)C(=O)O` (stereo not drawn) [Compound 14], the “HD max in water” value in data set [1] (Table 6) was 576 nm. Further, in data set [2] (Table 6), the “L*a*b*-value: L*” value is given as 19.5, the “L*a*b*-value: a*” value was determined as 7.5 and the “L*a*b*-value: b*” value was found to be 2.4. Moreover, in data set [3] (Table 6), the “Density loss in %” value came out at 2%.
With `O=C(O)c1ccc(N=Nc2ccc(N=Nc3c(S(=O)(=O)O)cc4ccc(NCCS(=O)(=O)O)cc4c3O)c3cc(S(=O)(=O)O)ccc23)cc1Cl` [Compound 15], the “HD max in water” value in data set [1] (Table 6) was found to be 590 nm. Moreover, in data set [2] (Table 6), the “L*a*b*-value: L*” value is recorded as 4.7, the “L*a*b*-value: a*” value was 4.5 and the “L*a*b*-value: b*” value was -1.7. The “neutral black (color co-ordinates)” value in data set [2] was “neutral blacks”. Moreover, the light fastness entry in data set [3] is listed as “excellent light fastness”. Also, the “Density loss in %” value in data set [3] (Table 6) amounted to 8%.
For the compound `O=C(O)c1cc(N=Nc2ccc(N=Nc3c(S(=O)(=O)O)cc4ccc(NCCS(=O)(=O)O)cc4c3O)c3ccc(S(=O)(=O)O)cc23)cc(C(=O)O)c1` [Compound 17], the “HD max in water” value in data set [1] (Table 6) is recorded as 568 nm. In data set [2] (Table 6), the “L*a*b*-value: L*” value amounted to 5.7, the “L*a*b*-value: a*” value was determined as 2.6 and the “L*a*b*-value: b*” value was found to be 2.3. Moreover, the “Density loss in %” value in data set [3] (Table 6) came to 2%.
For the compound `O=S(=O)(O)CCNc1ccc2cc(S(=O)(=O)O)c(N=Nc3ccc(N=Nc4cc(Cl)c(S(=O)(=O)O)cc4Cl)c4ccc(S(=O)(=O)O)cc34)c(O)c2c1` [Compound 18], in data set [1] (Table 6), the “HD max in water” value was determined as 553 nm. For the same compound, in data set [2] (Table 6), the “L*a*b*-value: L*” value amounted to 3.5, the “L*a*b*-value: a*” value turned out to be 4.4 and the “L*a*b*-value: b*” value is listed as 0.3. For the same compound, in data set [2], the “neutral black (color co-ordinates)” value is given as “neutral blacks”. The light fastness result in data set [3] is “excellent light fastness”. In addition, the “Density loss in %” value in data set [3] (Table 6) turned out to be 5%.
Turning to `O=S(=O)(O)CCNc1ccc2cc(S(=O)(=O)O)c(N=Nc3ccc(N=Nc4cc(S(=O)(=O)O)c5cccc(S(=O)(=O)O)c5c4)c4ccc(S(=O)(=O)O)cc34)c(O)c2c1` [Compound 19], the “HD max in water” value in data set [1] (Table 6) was found to be 581 nm. For the same compound, the “Density loss in %” value in data set [3] (Table 6) came to 1%.
`O=S(=O)(O)CCNc1ccc2cc(S(=O)(=O)O)c(N=Nc3ccc(N=Nc4ccc5c(S(=O)(=O)O)cc(S(=O)(=O)O)cc5c4)c4ccc(S(=O)(=O)O)cc34)c(O)c2c1` [Compound 20]: in data set [1] (Table 6), the “HD max in water” value worked out at 582 nm. Moreover, in data set [2] (Table 6), the “L*a*b*-value: L*” value worked out at 9.4, the “L*a*b*-value: a*” value came to 3.8 and the “L*a*b*-value: b*” value was -3.6. In addition, the “neutral black (color co-ordinates)” value in data set [2] is on record as “neutral blacks”. Besides, in data set [3], the light fastness result is “excellent light fastness”. In addition, the “Density loss in %” value in data set [3] (Table 6) came to 3%.
With `Nc1ccc2cc(S(=O)(=O)O)c(N=Nc3ccc(N=Nc4cccc(C(=O)O)c4)c4ccc(S(=O)(=O)O)cc34)c(O)c2c1` [Compound 23, reference compound], the “HD max in water” value in data set [1] (state of the art dyes, Table 7) turned out to be 570 nm. In data set [3] (state of the art dyes, Table 7), the “Density loss in %” value is given as 2%.
Take `Nc1ccc2cc(S(=O)(=O)O)c(N=Nc3ccc(N=Nc4cc(C(=O)O)cc(C(=O)O)c4)c4cc(S(=O)(=O)O)ccc34)c(O)c2c1` [Compound 25, reference compound]: the “HD max in water” value in data set [1] (state of the art dyes, Table 7) is 556 nm. Besides, in data set [2] (state of the art dyes, Table 7), the “L*a*b*-value: L*” value came to 10.6, the “L*a*b*-value: a*” value stood at 11.7 and the “L*a*b*-value: b*” value is on record as -0.6. In data set [3] (state of the art dyes, Table 7), the “Density loss in %” value turned out to be 2%.
Regarding `O=C(O)CCNc1ccc2cc(S(=O)(=O)O)c(N=Nc3ccc(N=Nc4ccc(C(=O)O)cc4)c4ccc(S(=O)(=O)O)cc34)c(O)c2c1` [Compound 27, reference compound], the “HD max in water” value in data set [1] (state of the art dyes, Table 7) was found to be 564 nm. In addition, in data set [2] (state of the art dyes, Table 7), the “L*a*b*-value: L*” value came out at 23.7, the “L*a*b*-value: a*” value is given as 15.1 and the “L*a*b*-value: b*” value is given as -16.6. Further, the “Density loss in %” value in data set [3] (state of the art dyes, Table 7) is 12%.
As for `Nc1ccc2cc(S(=O)(=O)O)cc(O)c2c1N=Nc1ccc(N=Nc2ccc(O)c(C(=O)O)c2)c2ccc(S(=O)(=O)O)cc12` [Compound 28, reference compound], in data set [2] (state of the art dyes, Table 7), the “L*a*b*-value: L*” value came out at 18.8, the “L*a*b*-value: a*” value is given as 18.1 and the “L*a*b*-value: b*” value is recorded as -4.1.

(Values after patent US5969115A, “Bisazo dyes and their preparation and use” (Ilford Imaging Switzerland GMBH, priority 1997, dated 1999).)
